Assay: molar heat capacity at constant pressure; xn = mol fraction of the nth substance listed
Conditions: 101 kPa, Liquid, Vacuum adiabatic calorimetry

CC#N [acetonitrile] + O
molar heat capacity at constant pressure [J/K/mol]
Conditions	283.15 K	298.15 K	313.15 K	328.15 K
x1 = 0.0112	76.78	76.64	76.74	76.89
x1 = 0.0194	77.58	77.54	77.7	77.9
x1 = 0.0286	78.38	78.45	78.67	78.89
x1 = 0.0383	79.1	79.27	79.51	79.77
x1 = 0.0497	79.91	80.02	80.18	80.51
x1 = 0.0611	80.52	80.57	80.8	81
x1 = 0.0702	80.89	80.95	81.21	81.46
x1 = 0.0804	81.26	81.33	81.57	81.9
x1 = 0.091	81.66	81.73	81.99	82.33
x1 = 0.1007	81.99	82.06	82.36	82.7
x1 = 0.2124	85.36	85.66	86.24	86.82
x1 = 0.3063	87.72	88.31	89.08	89.92
x1 = 0.3987	89.89	90.7	91.59	92.56
x1 = 0.4856	91.57	92.38	93.42	94.38
x1 = 0.6011	93.03	93.96	94.89	95.86
x1 = 0.7107	93.7	94.44	95.33	96.16
x1 = 0.8024	93.56	94.16	94.79	95.62
x1 = 0.9005	92.77	93.28	93.87	94.55
x1 = 0.9091	92.66	93.17	93.75	94.42
x1 = 0.9203	92.52	93.01	93.59	94.24
x1 = 0.9316	–	92.85	93.41	94.06
x1 = 0.9402	92.25	92.73	93.29	93.94
x1 = 0.9496	92.11	92.59	93.14	93.77
x1 = 0.9604	91.94	92.4	92.95	93.58
x1 = 0.9711	91.77	92.22	92.76	93.38
x1 = 0.9803	91.61	92.06	92.59	93.21
x1 = 0.991	91.42	91.87	92.39	93
x1 = 1	91.25	91.69	92.21	92.82

O [water] + CC#N
x2 = 0
Conditions	molar heat capacity at constant pressure [J/K/mol]
283.15 K	75.52
298.15 K	75.29
313.15 K	75.27
328.15 K	75.34

— the NIST ThermoML archive (doi:10.1016/j.jct.2010.04.019)
